Laboratory results published in ChEMBL document CHEMBL1157822, “Synthesis and SAR of novel isoquinoline CXCR4 antagonists with potent anti-HIV activity” (Bioorg Med Chem Lett, 2010).
Active and inactive are the calls of the source. No cut-off for these calls is given here.

Assays:
[1] = test system: Human immunodeficiency virus 1; test: Antiviral activity against HIV1 3B infected in human HOS cells expressing human CXCR4/CCR5/CD4/pHIV-LTR luciferase assessed as inhibition of viral infection to cells; type: functional, organism-based; conditions: Human immunodeficiency virus 1, 3B
[2] = Cytotoxicity against human HOS cells expressing human CXCR4/CCR5/CD4/pHIV-LTR luciferase; type: cell-based
[3] = Oral bioavailability in rat at 3 mg/kg; type: ADME, organism-based; conditions: in vivo
[4] = Half life in rat at 1 mg/kg, iv; type: ADME, organism-based; set-up: dose 1 mg/kg, route intravenous; conditions: in vivo
[5] = Clearance in rat at 1 mg/kg, iv; type: ADME, organism-based; set-up: dose 1 mg/kg, route intravenous; conditions: in vivo
[6] = Volume of distribution in rat at 1 mg/kg, iv; type: ADME, organism-based; set-up: dose 1 mg/kg, route intravenous; conditions: in vivo
[7] = molecular target: T1, C-X-C chemokine receptor type 4 (Homo sapiens, UniProt P61073); test: Antagonist activity at human CXCR4 expressed in HEK293 cells; type: functional, cell-based
[8] = molecular target: T1, C-X-C chemokine receptor type 4; test: Binding affinity to human CXCR4 expressed in HEK293 cells; type: cell-based

T1 sequence (P61073 whole entry): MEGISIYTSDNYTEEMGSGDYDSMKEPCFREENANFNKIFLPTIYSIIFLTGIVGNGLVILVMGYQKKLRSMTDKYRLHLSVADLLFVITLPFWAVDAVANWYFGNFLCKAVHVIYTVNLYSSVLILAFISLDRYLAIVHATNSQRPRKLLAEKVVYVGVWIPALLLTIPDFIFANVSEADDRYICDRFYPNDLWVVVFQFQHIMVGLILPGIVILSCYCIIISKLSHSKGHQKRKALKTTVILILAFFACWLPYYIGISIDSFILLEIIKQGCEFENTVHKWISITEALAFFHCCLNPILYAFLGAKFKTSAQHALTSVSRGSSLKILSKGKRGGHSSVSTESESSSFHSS

Structure (SMILES)	IC50 [1] [nM]	CC50 [2] [µM]	bioavailability [3] [%]	half-life [4] [min]	clearance [5] [mL/min/kg]	Vd [6] [L/kg]	Activity [7]	IC50 [8] [nM]
CN1CCC[C@H]1C(=O)NCc1c(CN(C)[C@H]2CCCc3cccnc32)ncc2ccccc12	44	0.54	–	–	–	–	–	–
NCCCCN(Cc1nc2ccccc2s1)C1CCCc2cccnc21 (racemic)	200	13	–	–	–	–	–	–
NCCCCN(Cc1ccc2ccccc2n1)C1CCCc2cccnc21 (racemic)	34	12	–	–	–	–	–	–
CN(Cc1ncc2ccccc2c1CNC(=N)N)[C@H]1CCCc2cccnc21	20	9	0	720	16	9	–	–
CN(Cc1ncc2ccccc2c1CCCNC(=N)N)[C@H]1CCCc2cccnc21	17	6.5	–	–	–	–	–	–
Cn1cncc1CN(CCCCN)C1CCCc2cccnc21 (racemic)	> 20000	> 20	–	–	–	–	–	–
Cn1ccnc1CN(CCCCN)C1CCCc2cccnc21 (racemic)	120	> 20	–	–	–	–	–	–
NCCCCN(Cc1cn2ccccc2n1)C1CCCc2cccnc21 (racemic)	42	> 20	–	–	–	–	–	–
CN(Cc1ncc2ccccc2c1CCC#N)[C@H]1CCCc2cccnc21	21	0.95	–	–	–	–	–	–
CN(C)C(=O)NCCCc1c(CN(C)[C@H]2CCCc3cccnc32)ncc2ccccc12	38	0.75	20	186	16	1.7	–	–
CN(C)CCCc1c(CN(C)[C@H]2CCCc3cccnc32)ncc2ccccc12	5	0.65	6	174	6.1	2.9	Active	3.4
CN(Cc1ncc2ccccc2c1C#N)[C@H]1CCCc2cccnc21	72	1.3	–	–	–	–	–	–
CN(Cc1cc2ccccc2cn1)[C@H]1CCCc2cccnc21	160	0.65	–	–	–	–	–	–
CN(C)Cc1c(CN(C)[C@H]2CCCc3cccnc32)ncc2ccccc12	48	5.9	–	–	–	–	–	–
CN(C)CC(=O)NCc1c(CN(C)[C@H]2CCCc3cccnc32)ncc2ccccc12	12	0.48	10	90	11	1.5	Active	16
CN(Cc1ncc2ccccc2c1CCCN)[C@H]1CCCc2cccnc21	12	1	–	–	–	–	–	–
CN(Cc1ncc2ccccc2c1CNS(C)(=O)=O)[C@H]1CCCc2cccnc21	41	2	–	–	–	–	–	–
NCCCCN(Cc1nccs1)C1CCCc2cccnc21 (racemic)	340	9.7	–	–	–	–	–	–
NCCCCN(Cc1nc2ccccc2[nH]1)C1CCCc2cccnc21 (racemic)	23	13	–	–	–	–	Active	–
CN1CCC[C@@H]1C(=O)NCc1c(CN(C)[C@H]2CCCc3cccnc32)ncc2ccccc12	12	0.69	–	–	–	–	–	–
NCCCCN(Cc1cccnc1)C1CCCc2cccnc21 (racemic)	> 20000	> 20	–	–	–	–	–	–
CN(Cc1ncc2ccccc2c1CCCNS(C)(=O)=O)[C@H]1CCCc2cccnc21	16	0.69	4	348	9.5	1.4	–	–
NCCCCN(Cc1ccccn1)C1CCCc2cccnc21 (racemic)	70	11	–	–	–	–	–	–
NCCCCN(Cc1nccc2ccccc12)C1CCCc2cccnc21 (racemic)	11	8.2	–	–	–	–	–	–
CN(Cc1ncc2ccccc2c1CN)[C@H]1CCCc2cccnc21	27	3.1	–	–	–	–	–	–
NCCCCN(Cc1cc2ccccc2cn1)C1CCCc2cccnc21 (racemic)	12	13	–	–	–	–	–	–
